Measurements: US8952162B2, “Triazolopyridines as phosphodiesterase inhibitors for treatment of dermal diseases” (Leo Pharma A/S, priority 2008, dated 2015)

Each compound was assayed against Human recombinant PDE4 (Genbank accession no NM—006203) (Homo sapiens, UniProt Q08499) (assay: PDE4 assay (SPA, cAMP cleavage)). Details: Example 52; human recombinant PDE4, 1 hour incubation, cAMP 1×10^-5M, test compound up to 10 μM; read-out: PDE4 IC50 range.
Format: biochemical
Procedure: At the end of the incubation, the cleavage of the substrate was evaluated by the binding of the AMP product to SPA beads, which generate chemoluminescence when bound to the radioactive tracer. The AMP product inhibited the binding of the radioactive tracer to the beads, and the luminescent signal was competed.

Human recombinant PDE4 (Genbank accession no NM—006203), sequence (Q08499 1-673 isoform Q08499-2): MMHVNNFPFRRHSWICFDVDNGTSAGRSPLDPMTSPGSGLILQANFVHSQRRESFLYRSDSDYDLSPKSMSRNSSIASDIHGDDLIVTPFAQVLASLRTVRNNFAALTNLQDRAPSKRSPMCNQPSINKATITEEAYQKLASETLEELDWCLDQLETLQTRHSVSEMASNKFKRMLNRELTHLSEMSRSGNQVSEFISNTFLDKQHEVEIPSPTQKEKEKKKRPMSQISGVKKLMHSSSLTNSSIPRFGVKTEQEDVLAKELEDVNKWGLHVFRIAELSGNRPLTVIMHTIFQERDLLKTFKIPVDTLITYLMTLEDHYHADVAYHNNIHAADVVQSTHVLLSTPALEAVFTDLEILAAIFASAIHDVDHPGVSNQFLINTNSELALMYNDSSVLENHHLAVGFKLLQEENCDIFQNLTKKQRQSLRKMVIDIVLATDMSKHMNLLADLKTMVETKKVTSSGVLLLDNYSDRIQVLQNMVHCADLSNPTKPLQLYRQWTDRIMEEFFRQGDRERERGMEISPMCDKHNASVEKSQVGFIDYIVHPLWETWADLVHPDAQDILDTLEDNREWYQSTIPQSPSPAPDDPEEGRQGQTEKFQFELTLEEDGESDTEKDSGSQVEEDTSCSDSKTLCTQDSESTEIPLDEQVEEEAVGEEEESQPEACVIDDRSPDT

IC50 [nM] | SMILES
500 to 1000 | COc1ccc(-c2cccc(NS(C)(=O)=O)c2)n2nc(C3CC3)nc12 [Compound 113, N-[3-(2-Cyclopropyl-8-methoxy-[1,2,4]triazolo[1,5-a]pyridin-5-yl)-phenyl]-methanesulfonamide]
500 to 1000 | COC(=O)CCc1ccc(-c2ccc(OC)c3nc(C4CC4)nn23)cc1 [Compound 133, 3-[4-(2-Cyclopropyl-8-methoxy-[1,2,4]triazolo[1,5-a]pyridin-5-yl)-phenyl]-propionic acid methyl ester]
< 500 | COc1ccc(-c2cccs2)n2nc(C3CC3)nc12 [Compound 106, 2-Cyclopropyl-8-methoxy-5-thiophen-2-yl-[1,2,4]triazolo[1,5-a]pyridine]
> 1000 | CNC(=O)c1cccc(-c2ccc(OC)c3nc(C4CC4)nn23)c1 [Compound 114, 3-(2-Cyclopropyl-8-methoxy-[1,2,4]triazolo[1,5-a]pyridin-5-yl)-N-methyl-benzamide]
< 500 | COc1ccc(-c2ccc(C(C)=O)s2)n2nc(C3CC3)nc12 [Compound 110, 1-[5-(2-Cyclopropyl-8-methoxy-[1,2,4]triazolo[1,5-a]pyridin-5-yl)-thiophen-2-yl]-ethanone]
500 to 1000 | COc1ccc(-c2ccc(C(F)(F)F)cc2)n2nc(C3CC3)nc12 [Compound 104, 2-Cyclopropyl-8-methoxy-5-(4-trifluoromethyl-phenyl)-[1,2,4]triazolo[1,5-a]pyridine]

Same assay, conditions: Example 53; PDE4 assay as in example 52; read-out: PDE4 IC50 range

IC50 [nM] | SMILES
< 500 | CCNC(=O)C1(c2nc3c(OC)ccc(-c4ccc(C#N)cc4)n3n2)CC1 [Compound 211, 1-[5-(4-Cyano-phenyl)-8-methoxy-[1,2,4]triazolo[1,5-a]pyridin-2-yl]-cyclopropanecarboxylic acid ethylamide]
< 500 | COc1cc(-c2ccc(OC)c3nc(C4(COC(=O)N(C)C)CC4)nn23)ccc1C#N [Compound 231, Dimethyl-carbamic acid 1-[5-(4-cyano-3-methoxy-phenyl)-8-methoxy-[1,2,4]triazolo[1,5-a]pyridin-2-yl]-cyclopropylmethyl ester]
< 500 | COc1ccc(-c2ccc(C#N)cc2)n2nc(C3(C(=O)NCCS(C)(=O)=O)CC3)nc12 [Compound 208, 1-[5-(4-Cyano-phenyl)-8-methoxy-[1,2,4]triazolo[1,5-a]pyridin-2-yl]-cyclopropanecarboxylic acid (2-methanesulfonyl-ethyl)-amide]
< 500 | COc1ccc(-c2cccc(C(C)=O)c2)n2nc(C3(C(=O)NCc4ccccc4)CC3)nc12 [Compound 224, 1-[5-(3-Acetyl-phenyl)-8-methoxy-[1,2,4]triazolo[1,5-a]pyridin-2-yl]-cyclopropanecarboxylic acid benzylamide]
< 500 | CCCNC(=O)OCC1(c2nc3c(OC)ccc(-c4ccc(C#N)c(OC)c4)n3n2)CC1 [Compound 237, Propyl-carbamic acid 1-[5-(4-cyano-3-methoxy-phenyl)-8-methoxy-[1,2,4]triazolo[1,5-a]pyridin-2-yl]-cyclopropylmethyl ester]
< 500 | COc1ccc(-c2ccc(C#N)cc2)n2nc(C3(C(=O)NC(C)C)CC3)nc12 [Compound 209, 1-[5-(4-Cyano-phenyl)-8-methoxy-[1,2,4]triazolo[1,5-a]pyridin-2-yl]-cyclopropanecarboxylic acid isopropylamide]
< 500 | CC(=O)c1cccc(-c2ccc(O)c3nc(C4CC4)nn23)c1 [Compound 144, 1-[3-(2-Cyclopropyl-8-hydroxy-[1,2,4]triazolo[1,5-a]pyridin-5-yl)-phenyl]-ethanone]
< 500 | COc1ccc(-c2cccc(C#N)c2)n2nc(C3(C(=O)NCc4ccccc4)CC3)nc12 [Compound 197, 1-[5-(3-Cyano-phenyl)-8-methoxyl-[1,2,4]triazolo[1,5-a]pyridin-2-yl]-cyclopropanecarboxylic acid benzylamide]
< 500 | COc1cc(-c2ccc(OC)c3nc(C4(C(=O)NCCS(C)(=O)=O)CC4)nn23)ccc1C#N [Compound 177, 1-[5-(4-Cyano-3-methoxy-phenyl)-8-methoxy-[1,2,4]triazolo[1,5-a]pyridin-2-yl]-cyclopropanecarboxylic acid (2-methanesulfonyl-ethyl)-amide]
< 500 | COc1ccc(-c2ccc3c(c2)CCC3=O)n2nc(C3(C(=O)NCc4ccccc4)CC3)nc12 [Compound 182, 1-[8-Methoxy-5-(1-oxo-indan-5-yl)-[1,2,4]triazolo[1,5-a]pyridin-2-yl]-cyclopropanecarboxylic acid benzylamide]
< 500 | COc1ccc(-c2ccc(C#N)cc2)n2nc(C3(C(=O)NCCS(N)(=O)=O)CC3)nc12 [Compound 207, 1-[5-(4-Cyano-phenyl)-8-methoxy-[1,2,4]triazolo[1,5-a]pyridin-2-yl]-cyclopropanecarboxylic acid (2-sulfamoyl-ethyl)-amide]
> 1000 | COc1ccc(-c2ccc(C#N)cc2)n2nc(C3(C(=O)O)CC3)nc12 [Compound 147, 1-[5-(4-Cyano-phenyl)-8-methoxy-[1,2,4]triazolo[1,5-a]pyridin-2-yl]-cyclopropanecarboxylic acid]
< 500 | COc1ccc(-c2cccc3c2CCC3=O)n2nc(C3(C(=O)NCc4ccccc4)CC3)nc12 [Compound 172, 1-[8-Methoxy-5-(1-oxo-indan-4-yl)-[1,2,4]triazolo[1,5-a]pyridin-2-yl]-cyclopropanecarboxylic acid benzylamide]
< 500 | COc1ccc(-c2cncc(C#N)c2)n2nc(C3(COC(=O)N4CCCC4)CC3)nc12 [Compound 242, Pyrrolidine-1-carboxylic acid 1-[5-(5-cyano-pyridin-3-yl)-8-methoxy-[1,2,4]triazolo[1,5-a]pyridin-2-yl]-cyclopropylmethyl ester]
< 500 | COCCNC(=O)C1(c2nc3c(OC)ccc(-c4cccc(C#N)c4)n3n2)CC1 [Compound 202, 1-[5-(3-Cyano-phenyl)-8-methoxy-[1,2,4]triazolo[1,5-a]pyridin-2-yl]-cyclopropanecarboxylic acid (2-methoxy-ethyl)-amide]
< 500 | COc1ccc(-c2ccc3c(c2)CNC3=O)n2nc(C3CC3)nc12 [Compound 171, 5-(2-Cyclopropyl-8-methoxy-[1,2,4]triazolo[1,5-a]pyridin-5-yl)-2,3-dihydro-isoindol-1-one]
< 500 | CCCNC(=O)C1(c2nc3c(OC)ccc(-c4ccc(C#N)cc4)n3n2)CC1 [Compound 212, 1-[5-(4-Cyano-phenyl)-8-methoxy-[1,2,4]triazolo[1,5-a]pyridin-2-yl]-cyclopropanecarboxylic acid propylamide]
< 500 | COc1cc(-c2ccc(OC)c3nc(C4(COC(=O)N5CCCC5)CC4)nn23)ccc1C#N [Compound 234, Pyrrolidine-1-carboxylic acid 1-[5-(4-cyano-3-methoxy-phenyl)-8-methoxy-[1,2,4]-triazolo[1,5-a]pyridin-2-yl]-cyclopropylmethyl ester]
< 500 | COc1cc(-c2ccc(OC)c3nc(C4(C(=O)NCc5ccccc5)CC4)nn23)ccc1C#N [Compound 178, 1-[5-(4-Cyano-3-methoxy-phenyl)-8-methoxy-[1,2,4]triazolo[1,5-a]pyridin-2-yl]-cyclopropanecarboxylic acid benzylamide]
